We go through ten molecules from patent publication US20250388565A1, “ESTROGEN RECEPTOR ALPHA DEGRADERS AND METHODS OF USE THEREOF” (Relay Therapeutics, Inc., priority 2022, published 2025).

Structures are written as SMILES.

One may read the DC50 as the concentration giving 50% degradation.

This experiment deals with T1, ERα protein (HiBiT-tagged) in ESR1_HiBiT KI MCF7 cells (Homo sapiens, UniProt P03372).
T1 sequence (P03372 1-595): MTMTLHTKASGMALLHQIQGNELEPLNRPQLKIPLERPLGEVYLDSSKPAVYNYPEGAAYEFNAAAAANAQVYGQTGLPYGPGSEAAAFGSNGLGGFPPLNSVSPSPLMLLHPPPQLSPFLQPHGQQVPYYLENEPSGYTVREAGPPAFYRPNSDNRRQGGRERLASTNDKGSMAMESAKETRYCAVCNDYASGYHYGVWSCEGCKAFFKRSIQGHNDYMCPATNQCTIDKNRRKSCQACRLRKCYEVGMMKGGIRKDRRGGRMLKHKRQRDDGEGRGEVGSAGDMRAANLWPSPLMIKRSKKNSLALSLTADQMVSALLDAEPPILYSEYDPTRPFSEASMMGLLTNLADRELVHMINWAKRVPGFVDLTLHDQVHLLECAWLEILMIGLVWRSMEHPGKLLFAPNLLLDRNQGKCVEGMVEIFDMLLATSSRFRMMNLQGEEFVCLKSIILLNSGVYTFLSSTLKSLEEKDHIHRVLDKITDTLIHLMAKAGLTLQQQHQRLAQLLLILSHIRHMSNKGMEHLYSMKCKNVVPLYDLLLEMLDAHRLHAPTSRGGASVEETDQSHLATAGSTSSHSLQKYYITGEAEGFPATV
Nature of the experiment: Nano Glo HiBiT Lytic Degradation Assay. Format: cell-based. Particulars: 6 hours with compound, 14-point dose response 1:3, bell-shape curve fit, half-maximal effect of first Hill model, read-out: MCF7 ESR1 HiBiT - (DC50). The procedure, abridged: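 HiBiT-tagged endogenous ERα remaining in MCF7 knock-in cells was quantified by lytic luminescence after a 6 h treatment. DC50 values derive from a bell-shaped curve, taken at the first Hill component's half-maximal effect.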

Consider `O=C1CC[C@H](N2Cc3cc(N4CCN(CC5CCN(c6ccc(C7=C(c8ccccc8)CCc8cc(C(=O)O)ccc87)cc6)CC5)CC4)ccc3C2=O)C(=O)N1` [Compound I-7, (S)-5-(4-(4-((4-(2-(2,6-dioxopiperidin-3-yl)-1-oxoisoindolin-S-yl)piperazin-1-yl)methyl)piperidin-1-yl)phenyl)-6-phenyl-7,8-dihydronaphthalene-2-carboxylic acid], for which the DC50 was ≥ 10000 nM.
Take `O=C1CC[C@H](N2Cc3cc(N4CCN(CC5CCN(c6ccc(C7c8ccc(O)cc8CCN7C7CCCCC7)cc6)CC5)CC4)ccc3C2=O)C(=O)N1` (stereo partly drawn) [Compound I-9, (3S)-3-(5-(4-((1-(4-(2-cyclohexyl-6-hydroxy-1,2,3,4-tetrahydroisoquinolin-1-yl)phenyl)piperidin-4-yl)methyl)piperazin-1-yl)-1-oxoisoindolin-2-yl)piperidine-2,6-dione]: the DC50 turned out to be 11 nM.
Turning to `O=C1CC[C@H](N2Cc3cc(N4CCN(CC5CCN(c6cc(F)c(C7=C(c8ccccc8)CCc8cc(O)ccc87)c(F)c6)CC5)CC4)ccc3C2=O)C(=O)N1` [Compound I-10, (S)-3-(5-(4-((1-(3,5-difluoro-4-(6-hydroxy-2-phenyl-3,4-dihydronaphthalen-1-yl)phenyl)piperidin-4-yl)methyl)piperazin-1-yl)-1-oxoisoindolin-2-yl)piperidine-2,6-dione], the DC50 amounted to 16 nM.
For the molecule `O=C1CCC(c2ccc(N3CCN(CC4CCN(c5ccc([C@H]6c7ccc(O)cc7CC[C@H]6c6ccccc6)cc5)CC4)CC3)cc2)C(=O)N1` (stereo partly drawn) [Compound I-11, 3-[4-[4-[[1-[4-[(1S,2R)-6-hydroxy-2-phenyl-tetralin-1-yl]phenyl]-4-piperidyl]methyl]piperazin-1-yl]phenyl]piperidine-2,6-dione], the DC50 is ≥ 10000 nM.
The result for `O=C1CC[C@H](N2Cc3cc(N4CCN(CC5CCN(c6ccc([C@H]7c8ccc(O)cc8C(F)(F)C[C@H]7c7ccccc7)cc6)CC5)CC4)ccc3C2=O)C(=O)N1` [Compound I-13] reads 13 nM.
For the molecule `Cn1cc([C@H]2CCc3cc(O)ccc3[C@H]2c2ccc(N3CCC(CN4CCN(c5ccc6c(c5)CN([C@H]5CCC(=O)NC5=O)C6=O)CC4)CC3)cc2)cn1` [Compound I-30], the DC50 turned out to be 2 nM.
On to `Cn1ccc([C@@H]2CCc3cc(O)ccc3[C@@H]2c2ccc(N3CCC(CN4CCN(c5ccc6c(c5)CN([C@H]5CCC(=O)NC5=O)C6=O)CC4)CC3)cc2)n1` [Compound I-31], for which the 50% degradation concentration (DC50) was ≥ 10000 nM.
As to `O=C1CC[C@H](N2Cc3cc(N4CCN(CC5CCN(c6ccc([C@@H]7c8ccc(O)cc8CC[C@@H]7C7CCOCC7)cc6)CC5)CC4)ccc3C2=O)C(=O)N1` [Compound I-32, (3S)-3-[5-[4-[[1-[4-[(1R,2R)-6-hydroxy-2-tetrahydropyran-4-yl-tetralin-1-yl]phenyl]-4-piperidyl]methyl]piperazin-1-yl]-1-oxo-isoindolin-2-yl]piperidine-2,6-dione], the DC50 was determined as 0.45 nM.
To `O=C1CC[C@H](N2Cc3cc(N4CCN(CC5CCN(c6ccc([C@H]7c8ccc(O)cc8CC[C@H]7C7CCOCC7)cc6)CC5)CC4)ccc3C2=O)C(=O)N1` [Compound I-33, (3S)-3-[5-[4-[[1-[4-[(1S,2S)-6-hydroxy-2-tetrahydropyran-4-yl-tetralin-1-yl]phenyl]-4-piperidyl]methyl]piperazin-1-yl]-1-oxo-isoindolin-2-yl]piperidine-2,6-dione] belongs 173 nM; to `O=C1CC[C@H](N2Cc3cc(N4CCN(CC5CCN(c6ccc([C@@H]7c8ccc(O)cc8CO[C@@H]7C7CCCCC7)cc6)CC5)CC4)ccc3C2=O)C(=O)N1` [Compound I-34, (S)-3-(5-(4-((1-(4-((3R,4R)-3-cyclohexyl-7-hydroxyisochroman-4-yl)phenyl)piperidin-4-yl)methyl)piperazin-1-yl)-1-oxoisoindolin-2-yl)piperidine-2,6-dione], 0.49 nM.
